Values belong to the molecule of their own block, whether it stands above or below them.
Assays:
[1] = target: T1, Adenylate cyclase type 5 (Homo sapiens, UniProt O95622); test: Effective dose required to stimulate Adenylate cyclase
Target sequence in this assay (O95622 whole entry, looked up): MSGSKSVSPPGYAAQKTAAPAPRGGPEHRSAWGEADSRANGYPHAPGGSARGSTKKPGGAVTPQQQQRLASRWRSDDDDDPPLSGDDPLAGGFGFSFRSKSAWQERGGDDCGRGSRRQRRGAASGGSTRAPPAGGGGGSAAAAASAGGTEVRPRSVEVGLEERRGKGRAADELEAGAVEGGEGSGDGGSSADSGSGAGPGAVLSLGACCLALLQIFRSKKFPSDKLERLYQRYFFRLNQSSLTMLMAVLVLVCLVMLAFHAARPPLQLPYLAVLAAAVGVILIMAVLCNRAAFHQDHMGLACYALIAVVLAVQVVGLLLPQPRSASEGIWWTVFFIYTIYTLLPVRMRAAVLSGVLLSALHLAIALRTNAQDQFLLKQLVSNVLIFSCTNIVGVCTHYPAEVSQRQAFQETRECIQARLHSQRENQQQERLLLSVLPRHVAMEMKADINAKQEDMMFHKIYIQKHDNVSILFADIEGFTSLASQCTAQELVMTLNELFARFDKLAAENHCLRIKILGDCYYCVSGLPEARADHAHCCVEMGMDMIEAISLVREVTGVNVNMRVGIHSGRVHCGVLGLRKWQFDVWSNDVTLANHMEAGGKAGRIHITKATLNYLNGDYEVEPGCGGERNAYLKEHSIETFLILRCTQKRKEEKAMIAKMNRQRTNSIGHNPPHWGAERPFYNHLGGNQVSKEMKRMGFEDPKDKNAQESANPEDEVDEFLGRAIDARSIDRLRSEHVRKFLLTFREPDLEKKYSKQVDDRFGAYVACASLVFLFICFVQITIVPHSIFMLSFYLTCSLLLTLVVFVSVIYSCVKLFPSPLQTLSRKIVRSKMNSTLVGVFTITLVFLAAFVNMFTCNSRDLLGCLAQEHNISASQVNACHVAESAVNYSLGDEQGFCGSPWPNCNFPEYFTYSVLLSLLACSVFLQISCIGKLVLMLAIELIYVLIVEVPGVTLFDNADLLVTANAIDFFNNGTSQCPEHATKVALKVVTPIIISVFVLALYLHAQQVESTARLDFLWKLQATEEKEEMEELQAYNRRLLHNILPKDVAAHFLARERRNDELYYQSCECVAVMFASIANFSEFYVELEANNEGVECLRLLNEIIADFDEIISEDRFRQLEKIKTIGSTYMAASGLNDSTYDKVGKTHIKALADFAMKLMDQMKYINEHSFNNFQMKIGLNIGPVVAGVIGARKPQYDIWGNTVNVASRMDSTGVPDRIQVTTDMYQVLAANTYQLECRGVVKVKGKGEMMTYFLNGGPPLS

[2] = target: T2, D(1A) dopamine receptor (Homo sapiens, UniProt P21728); test: Binding affinity to displace [3H]- SCH 23390 against Dopamine receptor D1
[3] = target: T1, Adenylate cyclase type 5; test: Effective concentration required to stimulate Adenylate cyclase; Inactive
Target sequence in this assay (O95622 whole entry): as the sequence (O95622 whole entry, looked up) above

[4] = target: T2, D(1A) dopamine receptor; test: Binding affinity to displace [3H]-SCH- 23390 against Dopamine receptor D1
[5] = target: D(1A) dopamine receptor (Rattus norvegicus, UniProt P18901); test: Binding affinity against Dopamine receptor D1 in rat radioligand
[6] = target: T1, Adenylate cyclase type 5; test: Effective concentration required to stimulate Adenylate cyclase
Target sequence in this assay (O95622 whole entry, looked up): as above

T2 sequence (P21728 whole entry): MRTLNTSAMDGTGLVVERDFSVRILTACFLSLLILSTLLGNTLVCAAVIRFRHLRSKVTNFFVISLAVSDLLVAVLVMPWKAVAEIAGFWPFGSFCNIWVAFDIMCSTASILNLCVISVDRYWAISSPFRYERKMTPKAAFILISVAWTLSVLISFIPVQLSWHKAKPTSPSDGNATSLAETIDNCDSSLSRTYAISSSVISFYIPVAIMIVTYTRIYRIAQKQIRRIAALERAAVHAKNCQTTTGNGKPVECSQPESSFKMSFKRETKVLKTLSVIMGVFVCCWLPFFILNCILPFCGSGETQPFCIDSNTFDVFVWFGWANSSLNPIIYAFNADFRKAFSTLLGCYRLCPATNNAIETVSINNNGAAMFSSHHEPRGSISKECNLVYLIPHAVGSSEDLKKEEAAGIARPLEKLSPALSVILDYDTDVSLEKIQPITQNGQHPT
D(1A) dopamine receptor (Rattus norvegicus, UniProt P18901), sequence (P18901 whole entry): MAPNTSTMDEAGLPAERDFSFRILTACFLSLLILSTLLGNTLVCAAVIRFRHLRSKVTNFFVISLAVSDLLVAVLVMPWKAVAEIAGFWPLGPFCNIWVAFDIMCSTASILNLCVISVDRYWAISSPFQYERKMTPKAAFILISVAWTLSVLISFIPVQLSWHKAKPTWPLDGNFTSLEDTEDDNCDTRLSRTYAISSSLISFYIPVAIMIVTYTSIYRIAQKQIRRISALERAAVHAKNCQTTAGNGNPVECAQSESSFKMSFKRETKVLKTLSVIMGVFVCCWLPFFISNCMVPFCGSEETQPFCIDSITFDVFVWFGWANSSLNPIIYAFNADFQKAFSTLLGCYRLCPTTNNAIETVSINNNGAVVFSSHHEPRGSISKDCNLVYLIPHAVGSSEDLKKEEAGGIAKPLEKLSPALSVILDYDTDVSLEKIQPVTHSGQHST

Compound: Oc1cc2c(cc1O)[C@@H](c1ccccc1)CNCC2
ED50 [1]: 63 nM

Compound: CN1CCc2cc(Cl)c(O)cc2[C@H]2c3ccccc3C[C@@H]21
Ki [2]: 7 nM

Compound: Cc1c(O)c(O)cc2c1[C@@H](c1ccccc1)CNCC2
EC50 [3]: Not Active

Compound: Oc1cc2c3c(c1O)CC[C@@H]3CNC[C@@H]2c1ccccc1
ED50 [1]: 430 nM | Ki [5]: 24 nM

Compound: Oc1cc2c3c(c1O)CC[C@H]3CNC[C@@H]2c1ccccc1
Control [1]: 20% | Ki [5]: 1220 nM

Next, values leading:

Ki [2]: 1.6 nM
Compound: Cc1ccc([C@H]2CN(C)CCc3cc(Cl)c(O)cc32)cc1

Ki [2]: 0.4 nM
Compound: Cc1cccc([C@H]2CN(C)CCc3cc(Cl)c(O)cc32)c1

Ki [4]: 6 nM
Compound: CN1CCc2cc(Cl)c(O)cc2[C@@H](c2cccc3ccoc23)C1

Ki [2]: 0.8 nM
Compound: Cc1ccccc1[C@H]1CN(C)CCc2cc(Cl)c(O)cc21

EC50 [3]: Not Active
Compound: Cc1ccccc1[C@H]1CNCCc2cc(O)c(O)cc21

Response [6]: 71%
Compound: Cc1cccc([C@H]2CNCCc3cc(O)c(O)cc32)c1

Source: ChEMBL document CHEMBL1125095, “Conformational analysis and structure-activity relationships of selective dopamine D-1 receptor agonists and antagonists of the benzazepine series” (J Med Chem, 1990)
